Measurements as given in the Deep4Chem optical property database.
Where “and” joins values, the source holds several entries; their conditions need not be identical. Equal values may be shown once.

Assay: solvent given as SMILES

Molecule `Cc1cc(C)c(C2=C3C=C(/C=C/C(=O)OC(C)(C)C)C=[N+]3[B-](F)(F)n3c2ccc3N2CCCC2)c(C)c1` has an absorption maximum (in ClCCl) of 479 nm.
In the case of `CC1(C)c2ccccc2N(c2ccc(-c3nnc(-c4ccccc4O)o3)cc2)c2ccccc21`, the absorption maximum (in C1CCOC1) is reported as 361 nm, the absorption maximum (in C1COCCO1) is reported as 363 nm and the absorption maximum (in CC#N) is reported as 358 nm. For the same molecule, the absorption maximum (in CC(C)=O) was 361 nm, the absorption maximum (in CCCCCC) was 362 nm and the absorption maximum (in CCO) was 361 nm. The absorption maximum (in CCOC(C)=O) was 360 nm, the absorption maximum (in CN(C)C=O) was 360 nm and the absorption maximum (in CS(C)=O) was 364 nm. It also gave an absorption maximum (in Cc1ccccc1) of 362 nm, an absorption maximum (in ClC(Cl)Cl) of 365 nm and an absorption maximum (in ClCCCl) of 368 nm. It also gave an absorption maximum (in ClCCl) of 366 nm and an absorption maximum (in Clc1ccccc1) of 367 nm.
`C[Si](C)(C)C#CC(C#C[Si](C)(C)C)=Cc1ccc(C=C(C#C[Si](C)(C)C)C#C[Si](C)(C)C)cc1` showed an absorption maximum (in ClC(Cl)Cl) of 412 nm.
With `Cc1ccc(-c2nc3c([nH]2)C2=CC(=O)S[C@]2(C)[C@@]2(C)SC(=O)C=C32)cc1` the absorption maximum (in CC#N) was 455 nm.
For `N#Cc1c(N2CCCCC2)cc(-c2ccc3ccccc3c2)c2c1C(=O)c1ccccc1-2`, the absorption maximum (in C1CCOC1) was 346 nm.
In the case of `BrC1=CN2C[n+]3cc(Br)ccc3N=C2C=C1`, the absorption maximum (in CO) is reported as 434 nm.
With `COc1ccc(C#Cc2c3ccccc3c3n2[B-](F)(F)[N+]2=C(C)C=C(C)C2=C3)cc1` the absorption maximum (in CCCCCC) was 611 nm, the absorption maximum (in CCCCCCCCO) was 615 nm and the absorption maximum (in CCOC(C)=O) was 610 nm. The absorption maximum (in CN(C)C=O) was 615 nm and the absorption maximum (in ClCCl) was 616 nm.
For `CN(c1ccccc1)c1ccc(N(c2ccccc2)c2ccc3ccc4c(N(c5ccccc5)c5ccc(N(C)c6ccccc6)cc5)ccc5ccc2c3c54)cc1`, the absorption maximum (in ClCCl) was 435 nm.
In the case of `CCN(CC)c1ccc(Nc2cc3oc(-c4ccc(C#N)cc4)nc3c3ccccc23)c(C)c1`, the absorption maximum (in C1COCCO1) is reported as 415 nm.
Work on `COc1ccc(O)cc1C=O` yielded an absorption maximum (in CO) of 355 nm and an absorption maximum (in ClC(Cl)Cl) of 349 nm.
Molecule `Cc1cccc(C2=Cc3c4ccccc4cc[n+]3[B-](F)(F)O2)c1` has an absorption maximum (in ClC(Cl)Cl) of 401.5 nm.
For `Cc1ccc2nc3c(=O)[nH]c(=O)[nH]c3nc2c1C`, the absorption maximum (in CC#N) was 375 nm.
Molecule `N#Cc1nc(N(Cc2ccccc2)Cc2ccccc2)c(C#N)nc1N(Cc1ccccc1)Cc1ccccc1` has an absorption maximum (in ClC(Cl)Cl) of 493 nm.
Molecule `N#Cc1ccc(-c2ccc(C3=CCCCC3)s2)s1` has an absorption maximum (in C1CCOC1) of 366 nm, an absorption maximum (in CC#N) of 366 nm and an absorption maximum (in CCCCCC) of 366 nm. The absorption maximum (in CCO) was 366 nm, the absorption maximum (in OCCOCCO) was 366 nm and the absorption maximum (in c1ccncc1) was 369 nm.
Work on `COc1ccc(-c2cc3oc(=O)cc(C)c3cc2-c2ccc(OC)c(OC)c2)cc1OC` yielded an absorption maximum (in C1CCOC1) of 346 nm.
`N#Cc1c(N2CCCCC2)cc(-c2cccc3ccccc23)c2c1CCc1ccccc1-2` gave an absorption maximum (in C1CCOC1) of 353 nm.
Work on `O=C1C=C(Nc2cccc(F)c2)C(=O)c2ccccc21` yielded an absorption maximum (in CCCCCC) of 440 nm and an absorption maximum (in CO) of 459 nm.
`CCOC(=O)c1sc2nc3c(c(C#N)c2c1N)CCCC3` gave an absorption maximum (in c1ccccc1) of 420 nm.
Molecule `COc1c2ccccc2c(OC)c2c1c1cccc(OC)c1n2C` has an absorption maximum (in C1CCCCC1) of 409 nm, an absorption maximum (in CC#N) of 409 nm and an absorption maximum (in CO) of 407 nm. It also gave an absorption maximum (in ClCCl) of 412 nm.
`CC(C)(C)c1cc2ccc3c(N(c4ccccc4)c4ccccc4)cc(N(c4ccccc4)c4ccccc4)c4ccc(c1)c2c34` gave an absorption maximum (in ClCCl) of 414 nm.
Molecule `O=C1C=C(Nc2ccccc2[N+](=O)[O-])C(=O)c2ccccc21` has an absorption maximum (in CO) of 450 nm.
`CCCC1=Cc2nc1ccc1[nH]c(cc1CCC)c1nc(c(OC)cc3[nH]c2cc3CCC)C(CCC)=C1` showed an absorption maximum (in Cc1ccccc1) of 682 nm.
With `CC(C)(C)c1ccc2c(c1)c1cc(C(C)(C)C)ccc1n2-c1ccccc1-c1nc(-c2ccccc2-n2c3ccc(C(C)(C)C)cc3c3cc(C(C)(C)C)ccc32)nc(-c2ccccc2P(=O)(c2ccccc2)c2ccccc2)n1` the absorption maximum (in C1CCOC1) was 343.17 nm, the absorption maximum (in CC#N) was 340.7 nm and the absorption maximum (in CC(C)=O) was 343.17 nm. It also gave an absorption maximum (in CN(C)C=O) of 343.17 nm, an absorption maximum (in Cc1ccccc1) of 340.7 nm and an absorption maximum (in ClC(Cl)Cl) of 343.17 nm. For the same molecule, the absorption maximum (in ClCCl) was 343.17 nm.
Molecule `CCCCn1c2ccccc2c2ccc3c4cc(-c5ccc6ccccc6c5)ccc4n(CCCC)c3c21` has an absorption maximum (in ClC(Cl)Cl) of 332 nm.
Molecule `Cc1ccccc1C1=C2C=c3c(oc4c3ccc3ccccc34)=[N+]2[B-](F)(F)n2c1cc1c3ccc4ccccc4c3oc12` has an absorption maximum (in C1CCCCC1) of 613 nm, an absorption maximum (in CCOC(C)=O) of 607 nm and an absorption maximum (in CO) of 605.5 nm.
Molecule `CCN(CC)c1ccc2cc3ccc(=[N+](CC)CC)cc-3oc2c1` has an absorption maximum (in CC#N) of 525 nm, an absorption maximum (in CCO) of 526 nm and an absorption maximum (in CN(C)C=O) of 535 nm. For the same molecule, the absorption maximum (in O) was 550 nm.
Molecule `COc1ccc(C2=N/C(=C\c3ccccc3)C(=O)O2)cc1OC` has an absorption maximum (in C1COCCO1) of 378 nm.
With `CCn1c2c(-c3cccs3)cc(C(C)(C)C)cc2c2cc(C(C)(C)C)cc(-c3cccs3)c21` the absorption maximum (in ClCCl) was 360 nm.
Work on `CCC1=C(C)C2=Cc3c4ccccc4c4n3[B-](c3ccc5cc6ccccc6cc5c3)(Oc3ccccc3-4)[N+]2=C1C` (stereo unspecified) yielded an absorption maximum (in CC#N) of 621 nm, an absorption maximum (in CCCCCC) of 626 nm and an absorption maximum (in Cc1ccccc1) of 630 nm. The absorption maximum (in ClCCl) was 627 nm.
With `c1ccc(N(c2ccccc2)c2ccc(-c3ncnc4ccccc34)cc2)cc1` the absorption maximum (in ClCCl) was 380 nm.
`CCOC(=O)C(C(=O)OCC)C1=[N+]2C(=C(c3ccc(C)cc3)c3ccc(Cl)n3[B-]2(F)F)C=C1` gave an absorption maximum (in C1CCCCC1) of 514 nm, an absorption maximum (in C1CCOC1) of 511 nm and an absorption maximum (in CCOC(C)=O) of 509 nm. The absorption maximum (in CO) was 508 nm, the absorption maximum (in Cc1ccccc1) was 515 nm and the absorption maximum (in ClC(Cl)Cl) was 513 nm.
In the case of `Cc1ccc2[nH]c(-c3ccc(-c4ccc(-c5ccc(-c6nc7cc(C)ccc7[nH]6)cc5)c(F)c4)cc3)nc2c1`, the absorption maximum (in CN(C)C=O) is reported as 344 nm.
Molecule `CCN(CC)c1cc(F)c(C(=O)c2cc(F)c(F)cc2F)cc1F` has an absorption maximum (in CCO) of 361 nm.
Molecule `CCn1c2ccccc2c2cc(C#Cc3cc(C#Cc4ccc5c(c4)c4ccccc4n5CC)nc(S(C)(=O)=O)n3)ccc21` has an absorption maximum (in C1CCOC1) of 408 nm, an absorption maximum (in CCOC(C)=O) of 405 nm and an absorption maximum (in CN(C)C=O) of 415 nm. The absorption maximum (in Cc1ccccc1) was 411 nm and the absorption maximum (in ClCCl) was 417 nm.
`Cc1ccc(C2=C3C=CC(Nc4ccccc4)=[N+]3[B-](F)(F)n3c(Nc4ccccc4)ccc32)cc1` showed an absorption maximum (in CO) of 588 nm.
For `CCOC(=O)c1cc(C(=O)OCC)c2ccccc2n1`, the absorption maximum (in CCO) was 319 nm.
`Cc1nc2c(ccc3c2sc(/C=C/c2ccc(N(C)C)cc2)[n+]3C)s1` showed an absorption maximum (in CO) of 534 nm and an absorption maximum (in ClC(Cl)Cl) of 557 nm.
In the case of `O=C1c2ccc3c4ccc5c6c(ccc(c7ccc(c2c37)C(=O)N1c1ccc(O)cc1)c64)C(=O)N(c1ccc(O)cc1)C5=O`, the absorption maximum (in C1CCOC1) is reported as 519 nm, the absorption maximum (in CN1CCCC1=O) is reported as 525 nm and the absorption maximum (in CN(C)C=O) is reported as 522 nm and 524 nm.
In the case of `CC1=CC(/C=C/c2ccc(N(C)C)cc2)=[N+]2C1=C(c1ccc(I)cc1)c1c(C)cc(/C=C/c3ccc(N(C)C)cc3)n1[B-]2(F)F`, the absorption maximum (in CC#N) is reported as 701 nm.
Molecule `CC/[NH+]=c1\cc2oc3cc(NCCC(=O)NC(C(=O)OC)c4ccccc4)c4ccccc4c3nc-2cc1C` (stereo unspecified) has an absorption maximum (in CCO) of 580 nm and an absorption maximum (in O) of 590 nm.
With `CCCCCCCCCCOc1cc(OCCCCCCCCCC)cc(C2=C3C(/C=C/c4ccc(OC)cc4)=C(C#Cc4ccc(C(C)(C)C)cc4)C(/C=C/c4ccc(OC)cc4)=[N+]3[B-](F)(F)n3c(/C=C/c4ccc(OC)cc4)c(C#Cc4ccc(C(C)(C)C)cc4)c(/C=C/c4ccc(OC)cc4)c32)c1` the absorption maximum (in ClC(Cl)Cl) was 732 nm.
For `O=P1(c2ccccc2)c2ccc(N3c4ccccc4Oc4ccccc43)cc2-c2cc(N3c4ccccc4Oc4ccccc43)ccc21`, the absorption maximum (in Cc1ccccc1) was 405 nm and the absorption maximum (in c1ccc2c(c1)c1ccccc1n2-c1ccc(-c2ccc(-n3c4ccccc4c4ccccc43)cc2)cc1) was 404.2 nm.
Work on `CC(C)(C)c1ccc(C2=c3sc4ccccc4c3=[N+]3C2=Nc2c(-c4ccc(C(C)(C)C)cc4)c4sc5ccccc5c4n2[B-]3(F)F)cc1` yielded an absorption maximum (in C1CCOC1) of 709 nm, an absorption maximum (in Cc1ccccc1) of 715 nm and an absorption maximum (in ClC(Cl)Cl) of 711 nm.
With `CC1=C(c2cccs2)C(C)=[N+]2C1=C(c1ccc(OS(=O)(=O)c3ccc([N+](=O)[O-])cc3[N+](=O)[O-])cc1)c1c(C)c(-c3cccs3)c(C)n1[B-]2(F)F` the absorption maximum (in CO) was 526 nm, the absorption maximum (in Cc1ccccc1) was 535 nm and the absorption maximum (in ClCCl) was 533 nm.
`CC(C)(C)NS(=O)(=O)c1ccc2c(c1)C(=O)/C(=C1\Sc3ccc(S(=O)(=O)NC(C)(C)C)cc3C1=O)S2` gave an absorption maximum (in C1COCCO1) of 538 nm, an absorption maximum (in CN(C)C=O) of 543 nm and an absorption maximum (in CS(C)=O) of 546 nm.
`CCCCc1ccc(-n2c3c4cc(F)ccc4nnc3c3c2c2nnc4ccc(F)cc4c2n3-c2ccc(CCCC)cc2)cc1` gave an absorption maximum (in Cc1ccccc1) of 315 nm.
Work on `CCCCOc1ccc(-c2cc3c(o2)c(-c2ccc(OCCCC)cc2)c2n3[B-](F)(F)[N+]3=Cc4c(-c5ccc(OCCCC)cc5)c5oc(-c6ccc(OCCCC)cc6)cc5n4[B-](F)(F)[N+]3=C2)cc1` yielded an absorption maximum (in C1CCOC1) of 619 nm, an absorption maximum (in CN(C)C=O) of 620 nm and an absorption maximum (in CS(C)=O) of 625 nm. It also gave an absorption maximum (in Cc1ccccc1) of 626 nm, an absorption maximum (in ClC(Cl)Cl) of 624 nm and an absorption maximum (in ClCCl) of 622 nm.
Molecule `COC(=O)c1c(-c2cc3ccccc3oc2=O)nn(-c2ccccc2)c1C(=O)OC` has an absorption maximum (in ClCCl) of 322 nm.
In the case of `N#Cc1nn(-c2c(Cl)cccc2Cl)nc1N1CCCC1`, the absorption maximum (in CC#N) is reported as 317 nm.
In the case of `c1ccc(C2CSC(c3c4ccc(=[N+]5CCCCC5)cc-4oc4cc(N5CCCCC5)ccc34)SC2)cc1` (stereo unspecified), the absorption maximum (in CO) is reported as 584.58 nm.
With `CN(C)c1ccc(/C=C/c2cc[n+](Cc3cc(C[n+]4ccc(/C=C/c5ccc(N(C)C)cc5)cc4)cc(C[n+]4ccc(/C=C/c5ccc(N(C)C)cc5)cc4)c3)cc2)cc1` the absorption maximum (in C1COCCO1) was 480 nm, the absorption maximum (in CC(C)O) was 490 nm and the absorption maximum (in CCCCCCCCO) was 489 nm. It also gave an absorption maximum (in CCCCO) of 491 nm, an absorption maximum (in CCCO) of 495 nm and an absorption maximum (in CCO) of 498 nm. The absorption maximum (in CO) was 498 nm, the absorption maximum (in CS(C)=O) was 491 nm and the absorption maximum (in ClC(Cl)Cl) was 500 nm. For the same molecule, the absorption maximum (in ClCCl) was 500 nm.
